What follows are molecules tested against T1, human Chk1 (GST-Chk1) (Homo sapiens, UniProt O14757) (assay: Chk1 FlashPlate kinase assay). Details: 8.7 nM GST-Chk1, 1 uM ATP, 33P incorporation into peptide substrate.
T1 construct: made in house; host or cells: insect cells (baculovirus, Bac-to-Bac)
T1 sequence (O14757 1-476): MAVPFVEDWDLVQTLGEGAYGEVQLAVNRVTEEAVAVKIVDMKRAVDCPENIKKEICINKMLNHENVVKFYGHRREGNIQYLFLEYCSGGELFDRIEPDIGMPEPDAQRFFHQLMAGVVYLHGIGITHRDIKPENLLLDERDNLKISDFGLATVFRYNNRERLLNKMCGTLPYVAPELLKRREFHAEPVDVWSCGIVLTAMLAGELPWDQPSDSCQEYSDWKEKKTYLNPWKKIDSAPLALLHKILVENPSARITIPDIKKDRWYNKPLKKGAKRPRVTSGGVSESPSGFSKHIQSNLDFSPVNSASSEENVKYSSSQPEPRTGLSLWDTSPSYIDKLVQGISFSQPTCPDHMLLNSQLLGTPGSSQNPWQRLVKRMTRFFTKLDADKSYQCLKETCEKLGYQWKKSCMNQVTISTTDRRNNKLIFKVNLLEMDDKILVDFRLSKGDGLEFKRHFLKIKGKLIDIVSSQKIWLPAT
Assay type: biochemical
Procedure: Recombinant human Chk1 was expressed as a fusion protein with glutathione S-transferase at the amino-terminus (GST-Chk1) using standard baculovirus vectors and (Bac-to-Bac®) insect cell expression system purchased from GIBCO™ Invitrogen. Recombinant protein expressed in insect cells was purified using glutathione sepharose (Amersham Biotech) using standard procedures described by the manufacturer.
Chk1 FlashPlate® Kinase Assay:
Assays (25 μL) contained 8.7 nM GST-Chk1, 10 mM MES, 0.1 mM ethylene glycol-bis(β-aminoethylether)-N,N,N′,N′-tetracetic acid (EGTA, pH 8.0), 2 mM DTT, 0.05% Tween 20, 3 uM peptide substrate (Biotin-ILSRRPSYRKILND-free acid) (SEQ ID NO: 1), 1 uM ATP, 0.4 uCi ^33P-γ-ATP (NEN), 4% DMSO. Reactions were incubated for 30 minutes at room temperature, terminated with 50 μL of 50 mM EDTA and 90 μL were transferred to streptavidin-coated FlashPlates® (NEN) and incubated for 1 hour at room temperature. Plates were washed with phosphate buffered salaine containing 0.01% Tween-20 and 10 mM sodium pyrophosphate. Plates were dried, sealed with Topseal™ (NEN) and amount of ^33P incorporated into the peptide substate measure using a Packard Topcount® NXT™ scintillation counter with standard settings.

**Q.** Which IC50 does the source give for `Cc1n[nH]c2c1c(=O)n(CCCO)c1ccccc21` [Example 14, 5-(3-Hydroxy-propyl)-3-methyl-1,5-dihydro-pyrazolo[4,3-c]quinolin-4-one] here?
**A.** < 1000 nM

**Q.** `Cc1n[nH]c2c1c(=O)n(CCCN)c1ccccc21` [Example 15, 5-(3-Amino-propyl)-3-methyl-1,5-dihydro-pyrazolo[4,3-c]quinolin-4-one] was tested. Which IC50 did it give?
**A.** < 1000 nM

**Q.** How did the IC50 turn out when `Cc1[nH]nc2c1c(=O)n(CCCN(C)C)c1ccc(Cl)cc21` [Example 16, 8-Chloro-5-(3-dimethylamino-propyl)-3-methyl-2,5-dihydro-pyrazolo[4,3-c]quinolin-4-one] was run?
**A.** < 1000 nM

**Q.** For `COC(=O)CCCn1c(=O)c2c(C)n[nH]c2c2cc(Br)ccc21` [Example 17, 4-(8-Bromo-3-methyl-4-oxo-1,4-dihydro-pyrazolo[4,3-c]quinolin-5-yl)-butyric acid methyl ester], which IC50 is on record?
**A.** < 1000 nM

**Q.** `Cc1[nH]nc2c1c(=O)n(CCCN(C)C)c1ccc(Br)cc21` [Example 18, 8-Bromo-5-(3-dimethylamino-propyl)-3-methyl-2,5-dihydro-pyrazolo[4,3-c]quinolin-4-one] was tested. Which IC50 did it give?
**A.** < 1000 nM

**Q.** `Cc1n[nH]c2c1c(=O)n(CCCC(=O)O)c1ccc(Br)cc21` [Example 19, 4-(8-Bromo-3-methyl-4-oxo-1,4-dihydro-pyrazolo[4,3-c]quinolin-5-yl)-butyric acid] was tested. Which IC50 did it give?
**A.** < 1000 nM

**Q.** `Cc1[nH]nc2c1c(=O)n(CCCC#N)c1ccc(Br)cc21` [Example 20, 4-(8-Bromo-3-methyl-4-oxo-2,4-dihydro-pyrazolo[4,3-c]quinolin-5-yl)-butyronitrile] was tested. Which IC50 did it give?
**A.** < 1000 nM

**Q.** For `Cc1n[nH]c2c1c(=O)n(CCCC(=O)N1CCN(C(=O)OC(C)(C)C)CC1)c1ccc(Br)cc21` [Example 21, 4-[4-(8-Bromo-3-methyl-4-oxo-1,4-dihydro-pyrazolo[4,3-c]quinolin-5-yl)-butyryl]-piperazine-1-carboxylic acid tert-butyl ester], which IC50 is on record?
**A.** < 1000 nM

**Q.** How did the IC50 turn out when `Cc1n[nH]c2c1c(=O)n(CCCC(=O)NCc1ccc(Cl)cc1)c1ccc(Br)cc21` [Example 22, 4-(8-Bromo-3-methyl-4-oxo-1,4-dihydro-pyrazolo[4,3-c]quinolin-5-yl)-N-(4-chloro-benzyl)-butyramide] was run?
**A.** < 1000 nM

**Q.** `Cc1n[nH]c2c1c(=O)n(CC(N)Cc1ccccc1)c1ccccc21` (stereo not drawn) [Example 23, 5-(2-Amino-3-phenyl-propyl)-3-methyl-1,5-dihydro-pyrazolo[4,3-c]quinolin-4-one] was tested. Which IC50 did it give?
**A.** > 20000 nM

**Q.** With `Cc1[nH]nc2c1c(=O)[nH]c1c(OCCCNC(=O)OC(C)(C)C)cccc12` [Example 24, [3-(3-Methyl-4-oxo-4,5-dihydro-2H-pyrazolo[4,3-c]quinolin-6-yloxy)-propyl]-carbamic acid tert-butyl ester] as the molecule, how does the IC50 read?
**A.** > 20000 nM

**Q.** How did the IC50 turn out when `Cc1[nH]nc2c1c(=O)[nH]c1c(OCCCN)cccc12` [Example 25, 6-(3-Amino-propoxy)-3-methyl-2,5-dihydro-pyrazolo[4,3-c]quinolin-4-one] was run?
**A.** 1000 to 20000 nM

**Q.** Which IC50 does the source give for `Cc1n[nH]c2c1c(=O)n(CCCCNC(=O)OC(C)(C)C)c1ccc(Br)cc21` [Example 29, [4-(8-Bromo-3-methyl-4-oxo-1,4-dihydro-pyrazolo[4,3-c]quinolin-5-yl)-butyl]-carbamic acid tert-butyl ester] here?
**A.** < 1000 nM

**Q.** `Cc1n[nH]c2c1c(=O)n(CC1CCCN(C(=O)OC(C)(C)C)C1)c1ccc(Br)cc21` (stereo not drawn) [Example 30, 3-(8-Bromo-3-methyl-4-oxo-1,4-dihydro-pyrazolo[4,3-c]quinolin-5-ylmethyl)-piperidine-1-carboxylic acid tert-butyl ester] was tested. Which IC50 did it give?
**A.** 1000 to 20000 nM

**Q.** With `Cc1n[nH]c2c1c(=O)n(CCCNC(=O)OC(C)(C)C)c1ccc(Cl)cc21` [Example 31, [3-(8-Chloro-3-methyl-4-oxo-1,4-dihydro-pyrazolo[4,3-c]quinolin-5-yl)-propyl]-carbamic acid tert-butyl ester] as the molecule, how does the IC50 read?
**A.** < 1000 nM

**Q.** `Cc1[nH]nc2c1c(=O)n(CCCN)c1ccc(Cl)cc21` [Example 32, 5-(3-Amino-propyl)-8-chloro-3-methyl-1,5-dihydro-pyrazolo[4,3-c]quinolin-4-one] was tested. Which IC50 did it give?
**A.** < 1000 nM

**Q.** How did the IC50 turn out when `Cc1n[nH]c2c1c(=O)n(CCCCN)c1ccc(Br)cc21` [Example 34, 5-(4-Amino-butyl)-8-bromo-3-methyl-1,5-dihydro-pyrazolo[4,3-c]quinolin-4-one] was run?
**A.** < 1000 nM

**Q.** How did the IC50 turn out when `Cc1[nH]nc2c1c(=O)n(CCCNC(=O)CC(C)C)c1ccccc21` [Example 35, 3-Methyl-N-[3-(3-methyl-4-oxo-2,4-dihydro-pyrazolo[4,3-c]quinolin-5-yl)-propyl]-butyramide] was run?
**A.** < 1000 nM

**Q.** For `Cc1n[nH]c2c1c(=O)n(CCCCNC(=O)c1ccccc1)c1ccc(Br)cc21` [Example 36, N-[4-(8-Bromo-3-methyl-4-oxo-1,4-dihydro-pyrazolo[4,3-c]quinolin-5-yl)-butyl]-benzamide], which IC50 is on record?
**A.** < 1000 nM

**Q.** How did the IC50 turn out when `Cc1n[nH]c2c1c(=O)n(CC1CCN(C(=O)OC(C)(C)C)CC1)c1ccc(Br)cc21` [Example 37, 4-(8-Bromo-3-methyl-4-oxo-1,4-dihydro-pyrazolo[4,3-c]quinolin-5-ylmethyl)-piperidine-1-carboxylic acid tert-butyl ester] was run?
**A.** 1000 to 20000 nM

**Q.** For `Cc1n[nH]c2c1c(=O)n(CC1CCNCC1)c1ccc(Br)cc21` [Example 39, 8-Bromo-3-methyl-5-piperidin-4-ylmethyl-1,5-dihydro-pyrazolo[4,3-c]quinolin-4-one], which IC50 is on record?
**A.** < 1000 nM

**Q.** With `Cc1n[nH]c2c1c(=O)n(CCCNC(=O)c1ccc(Cl)cc1)c1ccc(Cl)cc21` [Example 40, 4-Chloro-N-[3-(8-chloro-3-methyl-4-oxo-1,4-dihydro-pyrazolo[4,3-c]quinolin-5-yl)-propyl]-benzamide] as the molecule, how does the IC50 read?
**A.** < 1000 nM

**Q.** With `Cc1n[nH]c2c1c(=O)n(CC(C)CNC(=O)OC(C)(C)C)c1ccc(Br)cc21` (stereo not drawn) [Example 41, [3-(8-Bromo-3-methyl-4-oxo-1,4-dihydro-pyrazolo[4,3-c]quinolin-5-yl)-2-methyl-propyl]-carbamic acid tert-butyl ester] as the molecule, how does the IC50 read?
**A.** < 1000 nM

**Q.** For `Cc1n[nH]c2c1c(=O)n(CC(C)CN)c1ccc(Br)cc21` (stereo not drawn) [Example 42, 5-(3-Amino-2-methyl-propyl)-8-bromo-3-methyl-1,5-dihydro-pyrazolo[4,3-c]quinolin-4-one], which IC50 is on record?
**A.** < 1000 nM

**Q.** How did the IC50 turn out when `Cc1n[nH]c2c1c(=O)n(CCCNC(=O)OCc1ccccc1)c1ccc(Br)cc21` [Example 43, [3-(8-Bromo-3-methyl-4-oxo-1,4-dihydro-pyrazolo[4,3-c]quinolin-5-yl)-propyl]-carbamic acid benzyl ester] was run?
**A.** < 1000 nM

**Q.** How did the IC50 turn out when `Cc1ccc2c(c1)c1n[nH]c(C)c1c(=O)n2CCCNC(=O)OC(C)(C)C` [Example 44, [3-(3,8-Dimethyl-4-oxo-2,4-dihydro-pyrazolo[4,3-c]quinolin-5-yl)-propyl]-carbamic acid tert-butyl ester] was run?
**A.** < 1000 nM

**Q.** Which IC50 does the source give for `Cc1ccc2c(c1)c1n[nH]c(C)c1c(=O)n2CCCN` [Example 45, 5-(3-Amino-propyl)-3,8-dimethyl-2,5-dihydro-pyrazolo[4,3-c]quinolin-4-one] here?
**A.** < 1000 nM

**Q.** `Cc1n[nH]c2c1c(=O)n(C[C@@H](C)CNC(=O)OC(C)(C)C)c1ccc(Br)cc21` [Example 46, [3-(8-Bromo-3-methyl-4-oxo-1,4-dihydro-pyrazolo[4,3-c]quinolin-5-yl)-2-S-methyl-propyl]-carbamic acid tert-butyl ester] was tested. Which IC50 did it give?
**A.** < 1000 nM

**Q.** `Cc1n[nH]c2c1c(=O)n(C[C@@H](C)CN)c1ccc(Br)cc21` [Example 47, 5-(3-Amino-2-S-methyl-propyl)-8-bromo-3-methyl-1,5-dihydro-pyrazolo[4,3-c]quinolin-4-one] was tested. Which IC50 did it give?
**A.** < 1000 nM

**Q.** With `Cc1n[nH]c2c1c(=O)n(CC1CCCNC1)c1ccc(Br)cc21` (stereo not drawn) [Example 48, 8-Bromo-3-methyl-5-piperidin-3-ylmethyl-1,5-dihydro-pyrazolo [4,3-c]quinolin-4-one] as the molecule, how does the IC50 read?
**A.** < 1000 nM

**Q.** With `COCCc1[nH]nc2c1c(=O)n(CCCN)c1ccc(Cl)cc21` [Example 50, 5-(3-Amino-propyl)-8-chloro-3-(2-methoxy-ethyl)-2,5-dihydro-pyrazolo[4,3-c]quinolin-4-one] as the molecule, how does the IC50 read?
**A.** < 1000 nM

**Q.** For `Cc1n[nH]c2c1c(=O)n(CCCNCCc1ccccc1)c1ccccc21` [Example 51, 3-Methyl-5-(3-phenethylamino-propyl)-1,5-dihydro-pyrazolo[4,3-c]quinolin4-one], which IC50 is on record?
**A.** < 1000 nM

**Q.** For `Cc1n[nH]c2c1c(=O)n(CCNC(=O)OC(C)(C)C)c1ccc(Br)cc21` [Example 52, [2-(8-Bromo-3-methyl-4-oxo-1,4-dihydro-pyrazolo[4,3-c]quinolin-5-yl)-ethyl]-carbamic acid tert-butyl ester], which IC50 is on record?
**A.** < 1000 nM
